In this assay the target is T1, LPA2R (Homo sapiens, UniProt Q9HBW0).
T1 construct: expressed in transfected cells; host or cells: U2OS
The assay is described as follows: LPA2R-Calciumflux assay (FLIPR, intracellular calcium mobilisation after LPA). The following applies: U2OS cells recombinant expressing LPA2R; antagonism of LPA-induced calcium flux; racemate of the two trans enantiomers unless marked enantiomer. The format is cell-based. The source says: The assay detects intra cellular calcium which is generated by cells upon activation of the LPA2 receptor by its ligand LPA. This transient calcium mobilization can be monitored using a commercial calcium detection kit (e.g. from Molecular Devices). The main component of such a kit is a dye, which becomes fluorescent when calcium is present—a transient fluorescence signal after addition of a ligand to a test well are the result. Readers like the FLIPR (Molecular Devices) can be used to monitor such transient “Ca-flux” signals.
The signals are calculated according to peak maximum minus base line.
Compounds which are antagonists of LPA lead to a decreased mobilisation of intracellular calcium and thus to a lower signal. The assay is performed in microplates (384 wells per plate).
LPA2R-Calciumflux Assay Protocol
The assay is run according to the following procedure:
50 uL seed cells (10000 cells/well in DMEM buffer)
• Incubate 24 h at 37° C., 10% CO2 • aspirate medium 50 uL add calcium dye 1×HBSS/HEPES buffer • incubate 1 h at 37° C. (“loading”) • equilibrate 10 min at RT 5 uL add compounds in HEPES buffer • shake 10 sec. at 1000 rpm • incubate 15 min at RT 20 uL add LPA (in the FLIPR Tetra) in Krebs-buffer/BSA & measurement
The cells are seeded in DMEM buffer (DMEM, 10% FCS, 10 mM HEPES, 1% Pen/Strep).
Dye loading is done in HBSS/HEPES buffer (100 mL 10×HBSS+20 mL 1M HEPES+880 mL water, pH 7.4)
The LPA is added in Krebs/BSA buffer (120 mM NaCl, 5 mM KCl, 0.62 mM MgSO4, 1.8 mM CaCl2, 10 mM HEPES, 6 mM D(+)-Glucose, 0.2% BSA, pH 7.4).
The compounds are pre-diluted in HEPES buffer (20 mM, pH 7.4), whereby the final DMSO content in the assay is kept at 1%. The compounds are pre-diluted in order to generate dose response series on the microplates. The dose response series consist of 10 concentrations for each compound from 30 uM final to 1 nM final. From all compound wells the resulting signals are referred to control wells (located on each plate besides the compound wells) in terms of % activity.
From these % activity values—along with the corresponding compound concentrations—IC50 values are fitted for each compound using standard fitting programs such as Graphpad Prism. Here the method “log(inhibitor) vs. response—Variable slope” is used.

The structures appear in SMILES notation. pIC50: −log10 of the molar value.

T1 sequence (Q9HBW0 whole entry): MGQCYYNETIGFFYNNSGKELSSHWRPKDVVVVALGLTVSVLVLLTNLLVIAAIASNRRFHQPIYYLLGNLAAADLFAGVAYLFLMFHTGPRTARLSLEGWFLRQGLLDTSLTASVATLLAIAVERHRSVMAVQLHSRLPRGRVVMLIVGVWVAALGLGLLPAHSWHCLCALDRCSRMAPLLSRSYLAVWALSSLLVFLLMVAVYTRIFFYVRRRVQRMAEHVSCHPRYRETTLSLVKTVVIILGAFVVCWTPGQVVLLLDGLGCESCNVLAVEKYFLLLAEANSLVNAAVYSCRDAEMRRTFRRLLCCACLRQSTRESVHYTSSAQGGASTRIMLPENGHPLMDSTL

For the compound `NCc1ccc2[nH]c(NC(=O)C3CC3c3ccccc3)nc2c1` (racemic) [2-Phenyl-cyclopropane-carboxylic acid (5-aminomethyl-1H-benzoimidazol-2-yl)-amide], the pIC50 is 5.00 to 6.00.
Consider `Cc1cc2nc(NC(=O)C3CC3c3ccccc3)[nH]c2cc1C` (racemic) [2-Phenyl-cyclopropane-carboxylic acid (5,6-dimethyl-1H-benzoimidazol-2-yl)-amide], for which the pIC50 was 7.00 to 8.00.
To `CC(C)(C)OC(=O)NCc1ccc2[nH]c(NC(=O)C3CC3c3ccccc3)nc2c1` (racemic) [{2-[(2-Phenyl-cyclopropane-carbonyl)-amino]-1H-benzoimidazol-5-ylmethyl}-carbamic acid tert-butyl ester] belongs 6.00 to 7.00; to `O=C(Nc1nc2cc(Cl)ccc2[nH]1)C1CC1c1ccccc1` (racemic) [2-Phenyl-cyclopropane-carboxylic acid (6-chloro-1H-benzoimidazol-2-yl)-amide], 7.00 to 8.00; to `N#Cc1ccc2nc(NC(=O)C3CC3c3ccccc3)[nH]c2c1` (racemic) [2-Phenyl-cyclopropane-carboxylic acid (5-cyano-1H-benzoimidazol-2-yl)-amide], 7.00 to 8.00.
For `O=C(Nc1nc2ccccc2[nH]1)C1CC1c1cc(Br)ccc1F` (racemic) [2-(5-Bromo-2-fluoro-phenyl)-cyclopropane-carboxylic acid (1H-benzoimidazol-2-yl)-amide] the value was 7.00 to 8.00.
In the case of `O=C(Nc1nc2cc(Br)cnc2[nH]1)[C@H]1C[C@@H]1c1ccccc1` [(1S,2S)-2-Phenyl-cyclopropanecarboxylic acid (6-bromo-3H-imidazo[4,5-b]pyridin-2-yl)-amide], the pIC50 was 7.00 to 8.00.
For `O=C(Nc1nc2c(NCC3CCN(Cc4ccccc4)CC3)cccc2[nH]1)C1CC1c1ccccc1` (racemic) [2-Phenyl-cyclopropane-carboxylic acid {4-[(1-benzyl-piperidin-4-ylmethyl)-amino]-1H-benzoimidazol-2-yl}-amide] the value was 5.00 to 6.00.
To `O=C(Nc1nc2cc(Br)cnc2[nH]1)C1CC1c1ccccc1` (racemic) [2-Phenyl-cyclopropane-carboxylic acid (6-bromo-3H-imidazo[4,5-b]pyridin-2-yl)-amide] belongs more than 8.00.
On to `O=C(Nc1nc2ccncc2[nH]1)C1CC1c1ccccc1` (racemic) [2-Phenyl-cyclopropane-carboxylic acid (3H-imidazo[4,5-c]pyridin-2-yl)-amide], for which the pIC50 is less than 5.00.
To `O=C(Nc1nc2c(OCCN3CCCC3)cccc2[nH]1)C1CC1c1ccccc1` (single isomer, unassigned; enantiomer-2) [enantiomer-2-Phenyl-cyclopropane-carboxylic acid [4-(2-pyrrolidin-1-yl-ethoxy)-1H-benzoimidazol-2-yl]-amide] belongs 6.00 to 7.00; to `CC1(C)C(C(=O)Nc2nc3ccc(C#N)cc3[nH]2)C1c1ccccc1` (racemic) [2,2-Dimethyl-3-phenyl-cyclopropane-carboxylic acid (6-cyano-1H-benzoimidazol-2-yl)-amide], less than 5.00; to `O=C(Nc1nc2ccccc2[nH]1)C1CC1c1ccccc1Cl` (single isomer, unassigned; enantiomer-2) [drawing 75, enantiomer-2-(2-Chloro-phenyl)-cyclopropane-carboxylic acid (1H-benzoimidazol-2-yl)-amide], 7.00 to 8.00.
`COc1ccc2[nH]c(NC(=O)C3CC3c3ccccc3)nc2c1` (racemic) [2-Phenyl-cyclopropane-carboxylic acid (5-methoxy-1H-benzoimidazol-2-yl)-amide]: the pIC50 was 7.00 to 8.00.
To `O=C(Nc1nc2ccccc2[nH]1)C1CC1c1cccc(Cl)c1Cl` (racemic) [2-(2,3-Dichloro-phenyl)-cyclopropane-carboxylic acid (1H-benzoimidazol-2-yl)-amide] belongs 6.00 to 7.00; to `O=C(Nc1nc2ccccc2[nH]1)C1CC1c1ccccc1Cl` (single isomer, unassigned; enantiomer-2) [drawing 76, enantiomer-2-(2-Chloro-phenyl)-cyclopropane-carboxylic acid (1H-benzoimidazol-2-yl)-amide], less than 5.00; to `N#Cc1cccc(C2CC2C(=O)Nc2nc3ccccc3[nH]2)c1` (racemic) [2-(3-Cyano-phenyl)-cyclopropane-carboxylic acid (1H-benzoimidazol-2-yl)-amide], 6.00 to 7.00.
`CC1(C)C(C(=O)Nc2nc3ccccc3[nH]2)C1c1ccccc1` (racemic) [2,2-Dimethyl-3-phenyl-cyclopropane-carboxylic acid (1H-benzoimidazol-2-yl)-amide]: the pIC50 is less than 5.00.
For `Nc1cccc2[nH]c(NC(=O)C3CC3c3ccccc3)nc12` (racemic) [2-Phenyl-cyclopropane-carboxylic acid (4-amino-1H-benzoimidazol-2-yl)-amide] the value was 7.00 to 8.00; for `O=C(Nc1nc2cncnc2[nH]1)C1CC1c1ccccc1` (racemic) [2-Phenyl-cyclopropane-carboxylic acid (9H-purin-8-yl)-amide], 5.00 to 6.00.
For `N#Cc1ccc2nc(NC(=O)C3CC3c3ccccc3)[nH]c2c1` (single isomer, unassigned; enantiomer-2) [drawing 72, enantiomer-2-Phenyl-cyclopropane-carboxylic acid (6-cyano-1H-benzoimidazol-2-yl)-amide] the value was 5.00 to 6.00; for `O=C(Nc1nc2cc(Cl)c(Cl)cc2[nH]1)C1CC1c1ccccc1` (racemic) [2-Phenyl-cyclopropane-carboxylic acid (5,6-dichloro-1H-benzoimidazol-2-yl)-amide], 6.00 to 7.00.
For `O=C(Nc1nc2ccc(C(F)(F)F)cc2[nH]1)C1C(c2ccccc2)C1(F)F` (racemic) [2,2-Difluoro-3-phenyl-cyclopropane-carboxylic acid (6-trifluoromethyl-1H-benzoimidazol-2-yl)-amide] the value was 6.00 to 7.00; for `O=C(Nc1n[nH]c2ccccc12)C1CC1c1ccccc1` (racemic) [2-Phenyl-cyclopropane-carboxylic acid (1H-indazol-3-yl)-amide], less than 5.00; for `O=C(Nc1nc2ccccc2[nH]1)C1CC1c1c(Cl)cccc1Cl` (racemic) [2-(2,6-Dichloro-phenyl)-cyclopropane-carboxylic acid (1H-benzoimidazol-2-yl)-amide], less than 5.00.
As to `CCCS(=O)(=O)c1ccc2[nH]c(NC(=O)C3CC3c3ccccc3)nc2c1` (racemic) [2-Phenyl-cyclopropane-carboxylic acid [5-(propane-1-sulfonyl)-1H-benzoimidazol-2-yl]-amide], the pIC50 is 5.00 to 6.00.
Regarding `Cc1ccc(C2CC2C(=O)Nc2nc3ccccc3[nH]2)cc1` (racemic) [2-p-Tolyl-cyclopropane-carboxylic acid (1H-benzoimidazol-2-yl)-amide], the negative logarithm of the IC50 (pIC50) is 5.00 to 6.00.
For the compound `O=C(Nc1nc2ccccc2[nH]1)C1CC1c1ccccc1Cl` (single isomer, unassigned) [enantiomer-2-(2-Chloro-phenyl)-cyclopropane-carboxylic acid (1H-benzoimidazol-2-yl)-amide], the pIC50 is 7.00 to 8.00.
To `Cc1cccc2nc(NC(=O)C3CC3c3ccccc3)[nH]c12` (racemic) [2-Phenyl-cyclopropane-carboxylic acid (7-methyl-1H-benzoimidazol-2-yl)-amide] belongs 6.00 to 7.00; to `CN(C)c1cccc(C2CC2C(=O)Nc2nc3ccccc3[nH]2)c1` (racemic) [2-(3-Dimethylamino-phenyl)-cyclopropane-carboxylic acid (1H-benzoimidazol-2-yl)-amide], 6.00 to 7.00; to `O=C(Nc1nc2ccccc2[nH]1)C1CC1c1ccccc1` (single isomer, unassigned; enantiomer-2) [drawing 58, enantiomer-2-Phenyl-cyclopropane-carboxylic acid (1H-benzoimidazol-2-yl)-amide], 5.00 to 6.00.
Turning to `O=C(Nc1nc2cccnc2[nH]1)C1CC1c1ccccc1` (racemic) [2-Phenyl-cyclopropane-carboxylic acid (3H-imidazo[4,5-b]pyridin-2-yl)-amide], the pIC50 was 7.00 to 8.00.
With `CC1(C)C(C(=O)Nc2nc3ccc(C(F)(F)F)cc3[nH]2)C1c1ccccc1` (racemic) [2,2-Dimethyl-3-phenyl-cyclopropane-carboxylic acid (6-trifluoromethyl-1H-benzoimidazol-2-yl)-amide], the negative-log IC50 (pIC50) was less than 5.00.

The values above are taken from patent US8912202B2, “N-(benzimimdazol-2-yl)-cyclopropane carboxamides as lysophosphatidic acid antagonists” (Merck Patent GmbH, priority 2011, dated 2014).
